Experimental data: paper PMC9520749, “Novel angiotensin-converting enzyme and pancreatic lipase oligopeptide inhibitors from fermented rice bran” (Frontiers in Nutrition, 2022)
Read-outs that look alike come from different tables or passages of the source. Ends that are not written are not given here. Peptide text beside a SMILES is read from it.

How the values were obtained:
ACE [1] = target: T1, ACE (Homo sapiens, UniProt P12821); assay: In vitro simulated gastrointestinal digestion, then ACE inhibition; type: biochemical; details: 1 mg/mL, read-out: inhibition rate against ACE
T1 construct: purchased Sigma Co., St. Louis, Missouri, United States
Method: (§1) According to the experimental method of Yu Fu et al. ([8]), with slight changes, 50 μL ACE (0.1 U/mL, prepared from borate buffer with pH 8.3 and 80 mM), 50 μL FAPGG (1 mM), and 100 μL borate buffer (80 mM, pH 8.3) were added to a 96-well plate. Then, 100 μL borate buffer was replaced with 1 mg/mL sample, which are three groups of parallel samples, and the initial absorbance values a1 and b1 were measured at 340 nm. Then, the plate was placed at 37°C and reacted for 30 min. The absorbance values a2 and b2 were measured at 340 nm (Multiskan GO, Thermo Scientific, Waltham, MA, USA). The absorbance value was incorporated into the following formula to calculate the inhibition rate of polypeptide against ACE activity:
(§2) Simulated GI digestion through an in vitro pepsin–pancreatin hydrolysis method was carried out ([23]). The oligopeptides GLLGY, HWP, and VYGF were re-dissolved (3% w/v in distilled water) and adjusted to pH 2.0 with 1 M HCl. Then, pepsin (4% weight as received/weight of protein in the powder) was added. The mixture was incubated at 37°C for 2 h. The pH was then adjusted to 5.3 with 0.9 M NaHCO3 solution and further to pH 7.5 with 1 M NaOH. Pancreatin was added (4% weight as received/weight of protein in the powder), and the mixture was further incubated at 37°C for 2 h. To terminate the digestion, the test tubes were kept in boiling water for 10 min. The gastric digests (GDs) and gastric-intestinal digests (GIDs) were obtained through centrifugation (8000 × g, 10 min, 4°C), and then, the supernatants were collected, lyophilized, sealed in plastic bags, and stored at 4°C until further analysis. The ACE and pancreatic lipase inhibitory activities of GDS and GID were measured at a concentration of 1 mg/mL, and the results were expressed as activity (%) relative to that without any treatment (control group, 100%). All determinations were made in triplicate.

ACE [2] = target: T1, ACE; assay: Inhibitory kinetic analysis of ACE (Lineweaver-Burk); type: biochemical; details: sample 1 mg/mL, FAPGG 0.2-1 mM; read-out: inhibitory binding constant (Ki), ACE
Method: (§3) The inhibition kinetics of oligopeptides GLLGY, HWP, and VYGF on ACE and pancreatic lipase were tested to determine their efficiencies. For the ACE inhibition test, the concentration of the samples GLLGY, HWP, and VYGF was 1 mg/mL, and the concentrations of the substrate FAPGG were 0.2, 0.4, 0.6, 0.8, and 1 mM. For the pancreatic lipase inhibition test, the sample HWP concentration was 1 mg/mL and the substrate pNPB concentrations were 1, 2, 3, and 5 mM. The initial velocity data were used to construct the Lineweaver–Burke plots to determine the enzyme Km (Michaelis constant), Vmax (maximum velocity), and Ki (inhibitory binding constant) ([8], [22]).

ACE [3] = target: T1, ACE; assay: ACE inhibitory activity of peptides (FAPGG substrate, absorbance 340 nm); type: biochemical
Method: (§4) The polypeptide was synthesized by Hangzhou Dangang Biotechnology Co., Ltd (Hangzhou, China). Human ACE, N-[3-(2-furanyl) acryloyl]-l-phenylalanyl glycyl glycine (FAPGG), p-nitrophenyl butyrate (pNPB), and pancreatic lipase were purchased from Sigma Co., St. Louis, Missouri, United States.
as §1
(1) ACEinhibitionrate (%)=(A-B)/A×100
Where a1 and b1 are initial absorbance values of the blank and sample groups, respectively. a2 and b2 are absorbance values of the blank and sample groups after the reaction, respectively. A = a1–a2; B = b1–b2.

pancreatic lipase [4] = target: T2, pancreatic lipase (Sus scrofa, UniProt P00591); assay: Inhibitory kinetic analysis of pancreatic lipase (Lineweaver-Burk); type: biochemical; details: sample 1 mg/mL, pNPB 1-5 mM; read-out: inhibitory binding constant (Ki), pancreatic lipase
T2 construct: purchased Sigma Co., St. Louis, Missouri, United States
T2 sequence (P00591 1-450): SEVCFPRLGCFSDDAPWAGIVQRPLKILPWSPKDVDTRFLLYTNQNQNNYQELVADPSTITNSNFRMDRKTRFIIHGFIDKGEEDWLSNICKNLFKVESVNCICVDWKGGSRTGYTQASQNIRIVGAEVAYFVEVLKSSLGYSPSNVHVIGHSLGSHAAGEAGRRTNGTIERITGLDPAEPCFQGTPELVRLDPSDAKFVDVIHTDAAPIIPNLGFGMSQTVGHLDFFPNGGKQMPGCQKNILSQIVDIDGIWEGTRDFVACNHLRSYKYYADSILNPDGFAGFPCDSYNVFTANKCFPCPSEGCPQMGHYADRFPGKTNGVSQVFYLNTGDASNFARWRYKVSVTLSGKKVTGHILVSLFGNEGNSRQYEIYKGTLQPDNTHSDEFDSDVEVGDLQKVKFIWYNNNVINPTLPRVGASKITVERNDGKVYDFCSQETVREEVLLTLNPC
Method: as §3

pancreatic lipase [5] = target: T2, pancreatic lipase; assay: In vitro simulated gastrointestinal digestion, then pancreatic lipase inhibition; type: biochemical; details: 1 mg/mL, read-out: inhibition rate against pancreatic lipase
Method: (§5) According to the method of Magdalena mendoza-s á nchez ([1]). In the blank group, 100 μL of 0.1 M sodium phosphate buffer (pH 7.2), 50 μL pNPB (5 mM), and 50 μL pancreatic lipase (0.2 U/mL) were added to a 96-well plate. In the blank control group, 150 μL sodium phosphate buffer and 50 μL pNPB were added to the 96-well plate. In the sample group, 50 μL sodium phosphate buffer, 50 μL pNPB, 50 μL sample (1 mg/mL), and 50 μL pancreatic lipase were added to the 96-well plate. For the sample blank group, 100 μL sodium phosphate buffer, 50 μL pNPB, and 50 μL sample were added to the 96-well plate. At 37°C, the absorbance values A, B, C, and D were measured at 405 nm after 30 min of reaction. The absorbance values were incorporated into the following formula to calculate the inhibition rate of polypeptide against pancreatic lipase activity:
as §2

pancreatic lipase [6] = target: T2, pancreatic lipase; assay: Pancreatic lipase inhibitory activity of peptides (pNPB substrate, absorbance 405 nm); type: biochemical
Method: as §4, §5
(2) Pancreaticlipaseinhibitionrate (%)=(1-C-D/A-B)×100
Where A, B, C, and D are absorbance values of the blank, blank control, sample, and sample blank groups, respectively.

pancreatic lipase [7] = target: T2, pancreatic lipase; details: cited from earlier work

T1 sequence (P12821 30-1306): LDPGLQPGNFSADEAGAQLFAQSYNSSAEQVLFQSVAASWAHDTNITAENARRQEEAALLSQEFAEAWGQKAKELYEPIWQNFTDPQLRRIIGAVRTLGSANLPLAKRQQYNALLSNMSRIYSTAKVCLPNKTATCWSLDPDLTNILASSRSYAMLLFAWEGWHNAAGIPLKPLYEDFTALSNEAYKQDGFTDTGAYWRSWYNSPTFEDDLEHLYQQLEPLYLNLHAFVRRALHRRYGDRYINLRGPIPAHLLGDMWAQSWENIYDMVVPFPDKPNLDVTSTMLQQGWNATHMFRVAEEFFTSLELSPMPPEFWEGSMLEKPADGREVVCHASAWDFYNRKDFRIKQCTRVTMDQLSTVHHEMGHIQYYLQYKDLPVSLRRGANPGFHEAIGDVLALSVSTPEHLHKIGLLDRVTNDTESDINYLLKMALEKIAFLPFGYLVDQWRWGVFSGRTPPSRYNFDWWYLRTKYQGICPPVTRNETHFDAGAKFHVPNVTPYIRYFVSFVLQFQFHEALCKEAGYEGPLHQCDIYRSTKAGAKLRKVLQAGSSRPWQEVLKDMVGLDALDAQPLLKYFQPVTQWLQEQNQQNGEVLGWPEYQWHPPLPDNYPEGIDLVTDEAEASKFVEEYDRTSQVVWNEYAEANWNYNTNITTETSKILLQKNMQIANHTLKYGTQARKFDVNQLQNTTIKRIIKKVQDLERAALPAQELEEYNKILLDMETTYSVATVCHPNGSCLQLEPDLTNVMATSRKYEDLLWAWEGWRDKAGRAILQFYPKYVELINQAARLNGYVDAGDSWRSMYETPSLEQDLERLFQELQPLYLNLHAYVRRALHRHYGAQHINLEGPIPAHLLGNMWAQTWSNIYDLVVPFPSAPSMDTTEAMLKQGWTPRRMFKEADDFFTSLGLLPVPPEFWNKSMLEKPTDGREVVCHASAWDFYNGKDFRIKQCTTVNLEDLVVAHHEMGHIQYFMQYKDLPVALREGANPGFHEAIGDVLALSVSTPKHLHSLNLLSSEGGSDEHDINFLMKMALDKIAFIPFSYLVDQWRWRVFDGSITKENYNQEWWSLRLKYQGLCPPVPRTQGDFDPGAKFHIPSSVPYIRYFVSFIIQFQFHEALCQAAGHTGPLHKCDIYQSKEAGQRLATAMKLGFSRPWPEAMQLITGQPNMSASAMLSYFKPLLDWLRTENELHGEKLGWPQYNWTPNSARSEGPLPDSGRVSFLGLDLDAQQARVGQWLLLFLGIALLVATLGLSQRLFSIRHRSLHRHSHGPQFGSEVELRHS

Compound | inhibition at 1000 µg/mL (ACE [1]; after GI digestion) [%] | inhibition at 1000 µg/mL (ACE [1]; after gastric digestion) [%] | inhibition at 1000 µg/mL (ACE [1]; without GI digestion) [%] | Ki (ACE [2]) [µM] | IC50 (ACE [3]) [µM] | also measured
GLLGY [GLLGY] | 51.3 | 52.6 | 55.8 | 1570 | 1920 | –
N[C@@H](Cc1c[nH]cn1)C(=O)N[C@@H](Cc1c[nH]c2ccccc12)C(=O)N1CCC[C@H]1C(=O)O [HWP] (H-His-Trp-Pro-OH) | 53.6 | 54.4 | 57 | 1340 | 2280 | Ki (pancreatic lipase [4]): 2580 µM; inhibition at 1000 µg/mL (pancreatic lipase [5]; after GI digestion): 18.4%; inhibition at 1000 µg/mL (pancreatic lipase [5]; after gastric digestion): 19.9%; inhibition at 1000 µg/mL (pancreatic lipase [5]; without GI digestion): 21.5%; inhibition at 1000 µg/mL (pancreatic lipase [6]; at 1 mg/mL, read-out: pancreatic lipase inhibition rate): 20%; IC50 (pancreatic lipase [6]; gradient test of concentration, Figure 1C): 9010 µM
Leu-Pro | – | – | – | – | – | pancreatic lipase inhibitory activity (pancreatic lipase [7]; peptide of bovine and camel casein hydrolysates): exhibits pancreatic lipase inhibitory activity
VSTDVNIE [cocoa peptide] | – | – | – | – | – | inhibitory effect on pancreatic lipase (pancreatic lipase [7]; cocoa peptides): had inhibitory effect
O=c1cc(-c2ccc(O)cc2)oc2cc(O)cc(O)c12 [apigenin] | – | – | – | – | – | IC50 (pancreatic lipase [7]): 450 ± 30 µM; type of pancreatic lipase inhibition (pancreatic lipase [7]): competitively inhibited
CC(C)[C@H](N)C(=O)N[C@@H](Cc1ccc(O)cc1)C(=O)NCC(=O)N[C@@H](Cc1ccccc1)C(=O)O [VYGF] (H-VYGF-OH) | 49.1 | 50.9 | 54.8 | 933 | 2060 | –
